For one molecule, inhibition, Emax and Activity results are on record in ChEMBL document CHEMBL6121066, “Structure-Activity Relationship Studies of DNA Methyltransferase 1 Monovalent Degraders” (J Med Chem, 2025).

In assay [1] the target is DNA (cytosine-5)-methyltransferase 3B (Homo sapiens) (UniProt Q9UBC3). Briefly: Inhibition of human full-length DNMT3B using lambda DNA and SAM as substrate at 1 uM by radioisotope-based MT HotSpot assay relative to control.
The target of assay [2] is T1, Histone-lysine N-methyltransferase EHMT1 (Homo sapiens) (UniProt Q9H9B1).
T1 sequence (whole entry): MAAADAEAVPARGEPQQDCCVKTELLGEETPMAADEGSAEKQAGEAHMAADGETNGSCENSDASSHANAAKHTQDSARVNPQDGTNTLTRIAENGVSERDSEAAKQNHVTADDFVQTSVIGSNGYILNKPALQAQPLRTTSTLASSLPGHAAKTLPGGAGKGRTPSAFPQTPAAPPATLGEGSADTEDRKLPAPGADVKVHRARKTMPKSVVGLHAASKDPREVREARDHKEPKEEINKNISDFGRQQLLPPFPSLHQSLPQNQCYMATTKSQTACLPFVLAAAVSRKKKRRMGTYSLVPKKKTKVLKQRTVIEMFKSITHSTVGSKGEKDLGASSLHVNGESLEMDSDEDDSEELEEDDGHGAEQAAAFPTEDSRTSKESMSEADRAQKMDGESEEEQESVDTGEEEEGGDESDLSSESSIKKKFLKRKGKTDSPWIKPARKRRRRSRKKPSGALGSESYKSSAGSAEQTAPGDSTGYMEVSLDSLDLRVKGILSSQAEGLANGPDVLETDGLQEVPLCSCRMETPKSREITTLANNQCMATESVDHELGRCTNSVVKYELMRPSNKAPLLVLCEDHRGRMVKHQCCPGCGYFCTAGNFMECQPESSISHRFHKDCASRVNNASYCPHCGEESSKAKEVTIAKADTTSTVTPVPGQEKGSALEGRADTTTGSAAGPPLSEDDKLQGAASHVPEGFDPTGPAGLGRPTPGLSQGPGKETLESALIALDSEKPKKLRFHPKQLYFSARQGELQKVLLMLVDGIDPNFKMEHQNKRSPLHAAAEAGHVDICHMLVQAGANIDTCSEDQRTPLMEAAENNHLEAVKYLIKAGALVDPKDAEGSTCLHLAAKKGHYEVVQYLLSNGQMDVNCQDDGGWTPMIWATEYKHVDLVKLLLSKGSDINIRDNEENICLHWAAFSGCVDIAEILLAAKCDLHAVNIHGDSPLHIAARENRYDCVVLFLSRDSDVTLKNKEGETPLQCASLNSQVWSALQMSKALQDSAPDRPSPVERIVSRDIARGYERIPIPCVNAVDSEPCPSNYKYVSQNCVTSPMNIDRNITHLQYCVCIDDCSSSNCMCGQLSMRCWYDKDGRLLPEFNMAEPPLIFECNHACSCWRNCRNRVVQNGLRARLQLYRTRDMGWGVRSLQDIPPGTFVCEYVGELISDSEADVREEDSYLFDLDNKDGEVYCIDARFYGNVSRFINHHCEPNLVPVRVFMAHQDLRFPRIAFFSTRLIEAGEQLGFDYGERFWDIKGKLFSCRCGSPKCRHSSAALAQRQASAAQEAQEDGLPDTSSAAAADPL
Briefly: Inhibition of human GLP using Histone H3 and SAM as substrate at 1 uM by radioisotope-based MT HotSpot assay relative to control.

In assay [3] the test system is HCT-116. Briefly: Induction of molecular glue effect mediated DNMT1 degradation in human HCT-116 cells assessed as reduction in DNMT1 protein level by measuring maximal efficacy at 1 uM incubated for 24 hrs by Western blot analysis relative to control. The assay is classed as cell-based. For orientation: In western blotting, separated proteins are transferred to a membrane and probed.

The test system of another assay is NCI-H1299. Briefly: Induction of molecular glue effect mediated DNMT1 degradation in human NCI-H1299 cells assessed as reduction in DNMT1 protein level at 100 nM preincubated with MG132 for 2 hrs followed by compound addition and measured after 24 hrs by Western blot analysis. The assay is classed as cell-based.
Assay [4] relates to HCT-116. Briefly: Induction of molecular glue effect mediated DNMT1 degradation in human HCT-116 cells transfected with UHRF1 siRNA assessed as reduction in DNMT1 protein level at 100 nM measured after 24 hrs by Western blot analysis. The assay is classed as cell-based.
In assay [5] the target is Protein arginine N-methyltransferase 1 (Homo sapiens) (UniProt Q99873). Briefly: Inhibition of human PRMT1 using histone H4 and SAM as substrate at 1 uM by radioisotope-based MT HotSpot assay relative to control.
Chain of Protein arginine N-methyltransferase 1 (Homo sapiens) (Q99873 whole entry, looked up): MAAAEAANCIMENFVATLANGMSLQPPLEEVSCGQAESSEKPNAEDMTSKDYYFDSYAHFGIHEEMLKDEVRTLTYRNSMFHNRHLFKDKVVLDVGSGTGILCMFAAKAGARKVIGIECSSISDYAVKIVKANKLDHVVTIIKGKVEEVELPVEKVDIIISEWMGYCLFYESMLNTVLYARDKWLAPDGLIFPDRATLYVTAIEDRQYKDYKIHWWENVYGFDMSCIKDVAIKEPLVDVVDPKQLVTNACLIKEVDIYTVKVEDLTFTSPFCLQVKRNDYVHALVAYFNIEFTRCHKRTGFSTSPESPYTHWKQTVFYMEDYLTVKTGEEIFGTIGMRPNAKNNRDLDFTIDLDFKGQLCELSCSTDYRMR
Assay [6] relates to HCT-116. Description: Induction of molecular glue effect mediated DNMT1 degradation in human HCT-116 cells assessed as reduction in DNMT1 protein level at 500 nM measured after 2 hrs by Western blot analysis relative to control. The assay is classed as cell-based. Details: scale not given: the % may be the effect or the level left.
The test system of assay [7] is HCT-116. Briefly: Induction of molecular glue effect mediated DNMT1 degradation in human HCT-116 cells assessed as reduction in DNMT1 protein level at 100 nM preincubated with MG132 for 2 hrs followed by compound addition and measured after 24 hrs by Western blot analysis. The assay is classed as cell-based.
A further assay has as its system MDA-MB-468. Description: Effect on DNMT1 mRNA level in human MDA-MB-468 cells at 500 nM incubated for 24 hrs by RT-qPCR analysis. The assay is classed as functional, cell-based. A general note: Real-time PCR tracks product formation cycle by cycle.

The source made the active and inactive calls. No cut-off for these calls is given here.

For orientation: inhibition means the change of the read-out against control, counted positive when it falls. For orientation: Emax means the size of the effect at its maximum, as opposed to the concentration needed. As to `CCc1c(C#N)c(SC(C(N)=O)c2ccccc2)nc(N(C)CC(=O)NC)c1C#N` (centres undefined), the inhibition in [1], in [2] and in [5] was less than 20% each time. The Emax with HCT-116 [3] was 89%. Moreover, the outcome in the assay with NCI-H1299, with HCT-116 [7] and in the assay with MDA-MB-468 was inactive. Moreover, the Activity result with HCT-116 [4] was “Not active; Partial Rescue Of Degradation Observed”; in the assay on HCT-116 [6], 50%.
